Test results taken from BindingDB's records for doi:10.1016/j.bmcl.2013.09.026 (Friedrich-Alexander University, 2013).

Biological target: Alpha-1 adrenergic receptor (Sus scrofa)
Experiment: Displacement of [3H]-prazosin from alpha1-adrenergic receptor in pig cerebral cortex

| SMILES | Ki [nM] |
| --- | --- |
| COc1ccccc1N1CCN(Cc2cn(CCCCCCF)nn2)CC1 | 110 |
| COc1ccccc1N1CCN(Cc2cn(CCOCCOCCF)nn2)CC1 | 490 |
